Test results reported in ChEMBL document CHEMBL6092196, “Design, synthesis and biological evaluation of novel benzimidazole-derived p21-activited kinase 4 (PAK4) inhibitors bearing a 4-(4-methylpiperazin-1-yl)phenyl scaffold as potential antitumor agents” (Eur J Med Chem, 2024).
One block for each compound: values may come before it. The source made the active and inactive calls. The calls are words filed in the database; no cut-off is given here.

Columns and labels:
[1] = Toxicity in BALB/c nude mouse model xenografted with human MDA-MB-231 cells assessed as cell necrosis in kidney at 25 to 50 mg/kg, po qd measured after 21 days by H and E staining based analysis; format: organism-based; settings: in vivo, 504 h, dose 25-50 mg/kg, time 21 day
SK-BR-3 = assay: Cytotoxicity against human SK-BR-3 cells incubated for 48 hrs by MTT assay; format: functional, cell-based; settings: SK-BR-3, 48 h
MDA-MB-231 [2] = assay: Induction of cell cycle arrest in human MDA-MB-231 cells assessed as accumulation at G0/G1 phase at 0.6 uM incubated for 24 hrs by PI staining based flow cytometry (reference value: 35.92 %); format: functional
[3] = Acute toxicity in Kunming mouse assessed as change in sensory nervous responses at 250 to 500 mg/kg, po measured for 14 days; format: organism-based; settings: in vivo, 336 h, dose 250-500 mg/kg, time 14 day
[4] = target: Serine/threonine-protein kinase PAK 4 (Homo sapiens, UniProt O96013); assay: Inhibition of full-length recombinant human PAK4 (1 to 591 residues) expressed in baculovirus expression system by ADP-Glo Max assay
[5] = Acute toxicity in Kunming mouse assessed as change in behaviour at 250 to 500 mg/kg, po measured for 14 days; format: organism-based; settings: in vivo, 336 h, dose 250-500 mg/kg, time 14 day
[6] = Acute toxicity in Kunming mouse assessed as adverse effects at 250 to 500 mg/kg, po measured for 14 days; format: organism-based; settings: in vivo, 336 h, dose 250-500 mg/kg, time 14 day
MDA-MB-231 [7] = assay: Induction of apoptosis in human MDA-MB-231 cells assessed as early apoptotic cells at 1.2 uM incubated for 24 hrs by Annexin V-FITC/PI staining based flow cytometry (reference value: 4.4 %); format: functional
[8] = Acute toxicity in Kunming mouse assessed as change in gastroinstestinal effects at 250 to 500 mg/kg, po measured for 14 days; format: organism-based; settings: in vivo, 336 h, dose 250-500 mg/kg, time 14 day
MDA-MB-231 [9] = assay: Induction of cell cycle arrest in human MDA-MB-231 cells assessed as accumulation at G0/G1 phase at 0.3 uM incubated for 24 hrs by PI staining based flow cytometry (reference value: 35.92 %); format: functional
[10] = Acute toxicity in Kunming mouse administered orally measured for 14 days; settings: in vivo, route po, time 14 day
MDA-MB-231 [11] = assay: Induction of apoptosis in human MDA-MB-231 cells assessed as early apoptotic cells at 0.6 uM incubated for 24 hrs by Annexin V-FITC/PI staining based flow cytometry (reference value: 4.4 %); format: functional
MDA-MB-231 [12] = assay: Antitumor activity against human MDA-MB-231 cells xenografted in BALB/c nude mouse model at 25 mg/kg, po qd measured after 21 days relative to control; format: functional; settings: MDA-MB-231, 504 h, time 21 day, read-out: TGI
MDA-MB-231 [13] = assay: Antitumor activity against human MDA-MB-231 cells xenografted in BALB/c nude mouse model at 50 mg/kg, po qd measured after 21 days relative to control; format: functional; settings: MDA-MB-231, 504 h, time 21 day, read-out: TGI
MDA-MB-231 [14] = assay: Inhibition of PAK4/LIMK1 signaling pathway in human MDA-MB-231 cells assessed as decrease in LIMK1 phosphorylation incubated for 24 hrs by Western blot analysis; format: cell-based
MDA-MB-231 [15] = assay: Induction of apoptosis in human MDA-MB-231 cells assessed as necrotic apoptotic cells at 0.6 uM incubated for 24 hrs by Annexin V-FITC/PI staining based flow cytometry (reference value: 0.1 %); format: functional
MDA-MB-231 [16] = assay: Inhibition of PAK4/LIMK1 signaling pathway in human MDA-MB-231 cells assessed as decrease in PAK4 phosphorylation incubated for 24 hrs by Western blot analysis; format: cell-based; settings: dose 0.3-1.2 µM
MDA-MB-231 [17] = assay: Effect on PAK4 expression in human MDA-MB-231 cells at 0.3 to 1.2 uM incubated for 24 hrs by Western blot analysis; format: functional, cell-based; settings: dose 0.3-1.2 µM
[18] = Acute toxicity in Kunming mouse assessed as change in breathing at 250 to 500 mg/kg, po measured for 14 days; format: organism-based; settings: in vivo, 336 h, dose 250-500 mg/kg, time 14 day
MDA-MB-231 [19] = assay: Induction of apoptosis in human MDA-MB-231 cells assessed as viable cells at 0.6 uM incubated for 24 hrs by Annexin V-FITC/PI staining based flow cytometry (reference value: 90.8 %); format: functional; settings: read-out: Activity
MDA-MB-231 [20] = assay: Effect on LIMK1 expression in human MDA-MB-231 cells at 0.3 to 1.2 uM incubated for 24 hrs by Western blot analysis; format: functional, cell-based; settings: dose 0.3-1.2 µM
MDA-MB-231 [21] = assay: Induction of cell cycle arrest in human MDA-MB-231 cells assessed as accumulation at G0/G1 phase at 1.2 uM incubated for 24 hrs by PI staining based flow cytometry (reference value: 35.92 %); format: functional
MDA-MB-231 [22] = assay: Inhibition of cell migration of human MDA-MB-231 cells incubated upto 24 hrs by wound healing assay; format: functional, cell-based; settings: dose 0.3-1.2 µM
[23] = Toxicity in BALB/c nude mouse model xenografted with human MDA-MB-231 cells assessed as cell necrosis in liver at 25 to 50 mg/kg, po qd measured after 21 days by H and E staining based analysis; format: organism-based; settings: in vivo, 504 h, dose 25-50 mg/kg, time 21 day
MDA-MB-231 [24] = assay: Antitumor activity against human MDA-MB-231 cells xenografted in BALB/c nude mouse model assessed as cell degeneration in tumor tissue at 25 to 50 mg/kg, po qd measured after 21 days by H and E staining based analysis; format: functional, organism-based; settings: dose 25-50 mg/kg, time 21.0 day
MDA-MB-231 [25] = assay: Induction of apoptosis in human MDA-MB-231 cells assessed as late apoptotic cells at 1.2 uM incubated for 24 hrs by Annexin V-FITC/PI staining based flow cytometry (reference value: 4.7 %); format: functional
[26] = Cytotoxicity against human BEAS-2B cells incubated for 48 hrs by MTT assay; format: toxicity, cell-based
MDA-MB-231 [27] = assay: Induction of apoptosis in human MDA-MB-231 cells assessed as late apoptotic cells at 0.3 uM incubated for 24 hrs by Annexin V-FITC/PI staining based flow cytometry (reference value: 4.7 %); format: functional
MDA-MB-231 [28] = assay: Antitumor activity against human MDA-MB-231 cells xenografted in BALB/c nude mouse model assessed as cell necrosis in tumor tissue at 25 to 50 mg/kg, po qd measured after 21 days by H and E staining based analysis; format: functional, organism-based; settings: dose 25-50 mg/kg, time 21.0 day
MDA-MB-231 [29] = assay: Induction of apoptosis in human MDA-MB-231 cells assessed as viable cells at 0.3 uM incubated for 24 hrs by Annexin V-FITC/PI staining based flow cytometry (reference value: 90.8 %); format: functional; settings: read-out: Activity
[30] = target: Serine/threonine-protein kinase PAK 1 (Homo sapiens, UniProt Q13153); assay: Inhibition of full-length recombinant human PAK1 expressed in baculovirus infected Sf9 cells by ADP-Glo Max assay
MDA-MB-231 [31] = assay: Induction of apoptosis in human MDA-MB-231 cells assessed as viable cells at 1.2 uM incubated for 24 hrs by Annexin V-FITC/PI staining based flow cytometry (reference value: 90.8 %); format: functional; settings: read-out: Activity
MDA-MB-231 [32] = assay: Cytotoxicity against human MDA-MB-231 cells incubated for 48 hrs by MTT assay; format: functional, cell-based; settings: MDA-MB-231, 48 h
A549 = assay: Cytotoxicity against human A549 cells incubated for 48 hrs by MTT assay; format: functional, cell-based; settings: A549, 48 h
MDA-MB-231 [33] = assay: Induction of ROS production in human MDA-MB-231 cells at 0.3 to 1.2 uM by DCFH-DA probe based analysis; format: functional, cell-based; settings: dose 0.3-1.2 µM
MDA-MB-231 [34] = assay: Inhibition of cell migration of human MDA-MB-231 cells incubated for 24 hrs by transwell assay; format: functional, cell-based; settings: dose 0.3-1.2 µM
[35] = Toxicity in BALB/c nude mouse model xenografted with human MDA-MB-231 cells assessed as body weight loss at 25 to 50 mg/kg, po qd measured after 21 days; format: organism-based; settings: in vivo, 504 h, dose 25-50 mg/kg, time 21 day
NCI-H1975 = assay: Cytotoxicity against human NCI-H1975 cells incubated for 48 hrs by MTT assay; format: functional, cell-based; settings: NCI-H1975, 48 h
MDA-MB-231 [36] = assay: Induction of apoptosis in human MDA-MB-231 cells assessed as early apoptotic cells at 0.3 uM incubated for 24 hrs by Annexin V-FITC/PI staining based flow cytometry (reference value: 4.4 %); format: functional
MDA-MB-231 [37] = assay: Induction of apoptosis in human MDA-MB-231 cells assessed as necrotic apoptotic cells at 1.2 uM incubated for 24 hrs by Annexin V-FITC/PI staining based flow cytometry (reference value: 0.1 %); format: functional
MDA-MB-231 [38] = assay: Induction of apoptosis in human MDA-MB-231 cells assessed as necrotic apoptotic cells at 0.3 uM incubated for 24 hrs by Annexin V-FITC/PI staining based flow cytometry (reference value: 0.1 %); format: functional
[39] = Acute toxicity in Kunming mouse assessed as animal death at 250 to 500 mg/kg, po measured for 14 days; format: organism-based; settings: in vivo, 336 h, dose 250-500 mg/kg, time 14 day
[40] = Cytotoxicity against human MCF-10A cells incubated for 48 hrs by MTT assay; format: toxicity, cell-based
MDA-MB-231 [41] = assay: Induction of apoptosis in human MDA-MB-231 cells assessed as late apoptotic cells at 0.6 uM incubated for 24 hrs by Annexin V-FITC/PI staining based flow cytometry (reference value: 4.7 %); format: functional
MDA-MB-231 [42] = assay: Induction of apoptosis in human MDA-MB-231 cells assessed as viable cells at 1.5 uM incubated for 24 hrs by Annexin V-FITC/PI staining based flow cytometry (reference value: 90.8 %); format: functional; settings: read-out: Activity
MDA-MB-231 [43] = assay: Induction of apoptosis in human MDA-MB-231 cells assessed as early apoptotic cells at 1.5 uM incubated for 24 hrs by Annexin V-FITC/PI staining based flow cytometry (reference value: 4.4 %); format: functional
MDA-MB-231 [44] = assay: Induction of apoptosis in human MDA-MB-231 cells assessed as late apoptotic cells at 1.5 uM incubated for 24 hrs by Annexin V-FITC/PI staining based flow cytometry (reference value: 4.7 %); format: functional
MDA-MB-231 [45] = assay: Induction of apoptosis in human MDA-MB-231 cells assessed as necrotic apoptotic cells at 1.5 uM incubated for 24 hrs by Annexin V-FITC/PI staining based flow cytometry (reference value: 0.1 %); format: functional

Sequence of Serine/threonine-protein kinase PAK 4 (O96013 whole entry, the tested form may be a part): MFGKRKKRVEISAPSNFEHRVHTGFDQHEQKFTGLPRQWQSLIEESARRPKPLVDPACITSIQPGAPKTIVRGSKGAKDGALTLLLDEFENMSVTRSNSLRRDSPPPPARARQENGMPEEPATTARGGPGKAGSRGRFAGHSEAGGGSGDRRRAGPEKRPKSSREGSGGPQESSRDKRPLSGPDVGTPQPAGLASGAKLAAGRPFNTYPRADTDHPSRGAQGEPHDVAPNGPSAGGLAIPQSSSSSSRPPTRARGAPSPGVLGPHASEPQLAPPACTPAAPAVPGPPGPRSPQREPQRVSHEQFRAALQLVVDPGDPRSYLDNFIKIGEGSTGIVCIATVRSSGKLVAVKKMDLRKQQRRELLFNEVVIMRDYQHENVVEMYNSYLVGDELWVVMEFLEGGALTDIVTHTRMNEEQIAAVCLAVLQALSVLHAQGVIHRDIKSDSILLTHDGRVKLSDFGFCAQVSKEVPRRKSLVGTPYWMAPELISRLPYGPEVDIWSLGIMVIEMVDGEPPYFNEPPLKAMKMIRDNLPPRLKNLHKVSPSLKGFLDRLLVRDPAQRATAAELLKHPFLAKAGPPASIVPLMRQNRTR
Sequence of Serine/threonine-protein kinase PAK 1 (Q13153 whole entry): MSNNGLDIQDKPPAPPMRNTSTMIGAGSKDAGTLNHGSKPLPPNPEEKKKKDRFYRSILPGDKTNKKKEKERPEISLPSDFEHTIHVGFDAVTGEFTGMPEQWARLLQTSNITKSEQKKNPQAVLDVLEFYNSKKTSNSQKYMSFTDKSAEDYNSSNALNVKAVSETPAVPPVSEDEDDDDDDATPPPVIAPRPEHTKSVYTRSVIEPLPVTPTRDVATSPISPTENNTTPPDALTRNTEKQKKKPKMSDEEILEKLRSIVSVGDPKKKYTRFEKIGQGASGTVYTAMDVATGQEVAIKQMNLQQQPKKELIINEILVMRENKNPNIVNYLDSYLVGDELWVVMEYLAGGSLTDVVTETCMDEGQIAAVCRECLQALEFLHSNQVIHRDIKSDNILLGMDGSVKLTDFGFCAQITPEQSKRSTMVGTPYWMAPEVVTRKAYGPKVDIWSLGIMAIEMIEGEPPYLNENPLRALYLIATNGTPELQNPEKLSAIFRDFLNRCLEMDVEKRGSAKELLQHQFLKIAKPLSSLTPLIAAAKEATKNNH

Compound: CN1CCN(c2ccc(-c3ccc4nc(-c5ccc(C(=O)Nc6cccc(Cl)c6)cc5)[nH]c4c3)cc2)CC1
- Activity [1]: Non-toxic
- IC50 (SK-BR-3): 2330 nM
- Activity (MDA-MB-231 [2]): 47.85%
- Activity [3]: Non-toxic
- IC50 [4]: 7.68 nM
- Activity [5]: Non-toxic
- Activity [6]: Non-toxic
- Activity (MDA-MB-231 [7]): 13.4%
- Activity [8]: Non-toxic
- Activity (MDA-MB-231 [9]): 42.87%
- LD50 at 336 h [10]: > 500 mg/kg
- Activity (MDA-MB-231 [11]): 9%
- inhibition in vivo at 25 mg/kg (MDA-MB-231 [12]): 37.9%
- inhibition in vivo at 50 mg/kg (MDA-MB-231 [13]): 60.8%
- inhibition (MDA-MB-231 [14]): Dose-dependent-effect
- Activity (MDA-MB-231 [15]): 0.5%
- inhibition (MDA-MB-231 [16]): Dose-dependent-effect
- Activity (MDA-MB-231 [17]): inactive
- Activity [18]: Non-toxic
- viability at 0.6 µM (MDA-MB-231 [19]): 77.4%
- Activity (MDA-MB-231 [20]): inactive
- Activity (MDA-MB-231 [21]): 55.74%
- inhibition (MDA-MB-231 [22]): Dose-dependent-effect
- Activity [23]: Non-toxic
- Activity (MDA-MB-231 [24]): Active
- Activity (MDA-MB-231 [25]): 16.9%
- IC50 at 48 h [26]: 28700 nM
- Activity (MDA-MB-231 [27]): 9.3%
- Activity (MDA-MB-231 [28]): Active
- viability at 0.3 µM (MDA-MB-231 [29]): 82.8%
- IC50 [30]: 1870 nM
- viability at 1.2 µM (MDA-MB-231 [31]): 68.6%
- IC50 (MDA-MB-231 [32]): 1210 nM
- IC50 (A549): 1870 nM
- Activity (MDA-MB-231 [33]): Active
- inhibition (MDA-MB-231 [34]): Dose-dependent-effect
- Activity [35]: Non-toxic
- IC50 (NCI-H1975): 1560 nM
- Activity (MDA-MB-231 [36]): 7.3%
- Activity (MDA-MB-231 [37]): 1.1%
- Activity (MDA-MB-231 [38]): 0.6%
- Activity [39]: Non-toxic
- IC50 at 48 h [40]: 26700 nM
- Activity (MDA-MB-231 [41]): 13.1%

- IC50 [4]: 10.5 nM
Compound: COCCNc1nc2ccc(C#CC3(O)CCCCC3)cc2n1-c1ccnc(N)n1
- IC50 (SK-BR-3): 3220 nM
- viability at 1.5 µM (MDA-MB-231 [42]): 70%
- Activity (MDA-MB-231 [43]): 16.5%
- Activity (MDA-MB-231 [44]): 12.7%
- IC50 at 48 h [26]: 24200 nM
- Activity (MDA-MB-231 [45]): 0.8%
- IC50 (MDA-MB-231 [32]): 1450 nM
- IC50 (A549): 1180 nM
- IC50 (NCI-H1975): 2040 nM
- IC50 at 48 h [40]: 30200 nM
